Where two headings read alike, the source gives them in different places.
Assays:
HIV-1 = assay: in vitro anti-HIV assay: inhibition of HIV-induced cytopathic effect in MT-4 cells (MTT); assay type: cell-based; details: for SI: selectivity index = ratio of CC50 to IC50
Protocol: (§1) A rapid, sensitive and automated assay procedure was used for the in vitro evaluation of anti-HIV agents. An […] T4-cell line, MT-4, which was previously shown (Koyanagi et al., Int. J. Cancer, 36, 445-451, 1985) to be highly susceptible to and permissive for HIV infection, served as the target cell line. Inhibition of the HIV-induced cytopathic effect was used as the end point. The viability of both HIV- and mock-infected cells was assessed spectrophotometrically via the in situ reduction of 3-(4,5-dimethylthiazol-2-yl)-2,5-diphenyltetrazolium bromide (MTT). The 50% […], cytotoxic concentration (CC50 in μM) was defined as the concentration of compound that reduced the absorbance of the mock-infected control sample by 50%. The percent protection achieved by the compound in HIV-infected cells was calculated by the following formula: [formula]
(§2) whereby (ODT)HIV is the optical density measured with a given concentration of the test compound in HIV-infected cells; (ODC)HIV is the optical density measured for the control untreated HIV-infected cells; (ODC)MOCK is the optical density measured for the control untreated mock-infected cells; all optical density values were determined at 540 nm. The dose achieving 50% protection according to the above formula was defined as the 50% inhibitory concentration (IC50 in μM). The ratio of CC50 to IC50 was defined as the selectivity index (SI).

MT-4 cells = assay: cytotoxicity in mock-infected MT-4 cells (MTT)
Protocol: as §1, §2

[1] = Human immunodeficiency virus 1, MT4, HIV-infected MT-4 cells, dose achieving 50% protection against cytopathic effect, MTT, OD 540 nm, mean value, read-out: IC50
[2] = HIV-infected MT-4 cells, dose achieving 50% protection against cytopathic effect, MTT, OD 540 nm, mean value, read-out: IC50

Structure (SMILES)	IC50 (HIV-1; [1]) [nM]	SI (HIV-1)	IC50 (HIV-1; [2]) [nM]	CC50 (MT-4 cells) [nM]	IC50 (HIV-1; Human immunodeficiency virus 1, MT4) [nM]
N#Cc1ccc(Nc2nc(N)nc(Cc3c(Cl)cccc3Cl)n2)cc1 [Compound 1, 4-[[4-amino-6-[(2,6-dichlorophenyl)methyl]-1,3,5-triazin-2-yl]amino]benzonitrile]	2	>42553	–	–	–
N#Cc1ccc(Nc2nc(N)nc(Cc3ccccc3)n2)cc1 [Compound 2]	–	>350	290	> 100000	–
N#Cc1ccc(Nc2nc(N)nc(Cc3ccccc3Cl)n2)cc1 [Compound 3]	–	3972	13	51600	–
N#Cc1cccc(Nc2nc(N)nc(Cc3c(Cl)cccc3Cl)n2)c1 [Compound 4]	–	224	240	53600	–
Nc1nc(Cc2c(Cl)cccc2Cl)nc(Nc2ccc(Cl)cc2)n1 [Compound 5]	–	2793	17	47500	–
N#Cc1ccc(Nc2nc(N)nc(Cc3c(Cl)ccc4[nH]ccc34)n2)cc1 [Compound 8, 4-[[4-amino-6-[(5-chloro-1H-indol-4-yl)methyl]-1,3,5-triazin-2-yl]amino]benzonitrile]	–	4806	–	–	300
CN(C)c1nc(Cc2c(Cl)cccc2Cl)nc(Nc2ccc(C#N)cc2)n1 [Compound 10]	–	>602	170	> 100000	–
N#Cc1ccc(Nc2nc(Cc3c(Cl)cccc3Cl)nc(Nc3ccc(C#N)cc3)n2)cc1 [Compound 11, N,N′-[6-[(2,6-dichlorophenyl)methyl]1,3,5-triazin-2,4-diyl]bis[4-aminobenzonitrile]]	–	<1	> 10400	6000	–
CCN(CC)c1nc(Cc2c(Cl)cccc2Cl)nc(Nc2ccc(C#N)cc2)n1 [Compound 12]	–	>2	8100	> 20000	–
COC(=O)CNc1nc(Cc2c(Cl)cccc2Cl)nc(Nc2ccc(C#N)cc2)n1 [Compound 13]	–	>178	110	> 20000	–
N#Cc1ccc(Nc2nc(Cc3c(Cl)cccc3Cl)nc(NCC(N)=O)n2)cc1 [Compound 14, [N-[4-[(4-cyano-phenyl)amino]-6-[(2,6-dichlorophenyl)methyl]-1,3,5-triazin-2-yl]]aminoacetamide]	31	293	–	–	–
N#Cc1ccc(Nc2nc(Cc3c(Cl)cccc3Cl)nc(NN)n2)cc1 [Compound 15, 4-[[4-[(2,6-dichlorophenyl)methyl]-6-hydrazino-1,3,5-triazin-2yl]amino]benzonitrile]	61	732	–	–	–
N#Cc1ccc(Nc2nc(Cc3c(Cl)cccc3Cl)nc(NCC(=O)O)n2)cc1 [Compound 16, N-[4-[(4-cyanophenyl)-amino]-6-[(2,6-dichlorophenyl)methyl]-1,3,5-triazin-2-yl]glycine]	2800	28	–	–	–
CCOC(=O)CC[C@H](Nc1nc(Cc2c(Cl)cccc2Cl)nc(Nc2ccc(C#N)cc2)n1)C(=O)OCC [Compound 17]	–	>4	4300	> 20000	–
N#Cc1ccc(Nc2nc(Cc3c(Cl)cccc3Cl)nc(NCCO)n2)cc1 [Compound 18]	–	>2030	1	> 20000	–
N#Cc1ccc(Nc2nc(Cc3c(Cl)cccc3Cl)nc(NCCN)n2)cc1 [Compound 19]	–	810	13	10400	–
N#Cc1ccc(Nc2nc(Cc3c(Cl)cccc3Cl)nc(NC(=N)N)n2)cc1 [Compound 20, N-[4-[(4-cyanophenyl)amino]-6-[(2,6-dichlorophenyl)methyl]-1,3,5-triazin-2-yl]-guanidine]	> 100000	<1	–	–	–
Cl.N#Cc1ccc(Nc2nc(Cc3c(Cl)cccc3Cl)nc(NO)n2)cc1.O [Compound 21, 4-[[4-[(2,6-dichlorophenyl)methyl]-6-(hydroxyamino)-1,3,5-triazin-2-yl]amino]benzonitrile monohydrochloride.monohydrate]	–	4924	2	8900	–
CC(=O)Nc1nc(Cc2c(Cl)cccc2Cl)nc(Nc2ccc(C#N)cc2)n1 [Compound 22, N-[4-[(4-cyanophenyl)amino]-6-[(2,6-dichlorophenyl)methyl)-1,3,5-triazin-2-yl]-acetamide]	14	>6993	–	–	–
N#Cc1ccc(Nc2nc(Cc3c(Cl)cccc3Cl)nc(NCCCNC(N)=O)n2)cc1 [Compound 23, N-[3-[[4-[(4-cyanophenyl)amino]-6-[(2,6-dichlorophenyl)methyl]-1,3,5-triazin-2-yl]amino]propyl]urea]	340	106	–	–	–
N#Cc1ccc(Nc2nc(Cc3c(Cl)cccc3Cl)nc(NCCCCO)n2)cc1 [Compound 24]	–	529	68	36100	–
N#Cc1ccc(Nc2nc(Cc3c(Cl)cccc3Cl)nc(NCCCO)n2)cc1 [Compound 25]	–	1773	29	51600	–

Structure (SMILES)	IC50 (HIV-1; [1]) [nM]	SI (HIV-1)	IC50 (HIV-1; [2]) [nM]	CC50 (MT-4 cells) [nM]	IC50 (HIV-1; Human immunodeficiency virus 1, MT4) [nM]
N#Cc1ccc(Nc2nc(Cc3c(Cl)cccc3Cl)nc(NCC(O)CO)n2)cc1 (centres unmarked) [Compound 26, (O)-4-[[4-[(2,6-dichlorophenyl)methyl]-6-[(2,3-dihydroxypropyl)amino]-1,3,5-triazin-2-yl]amino]benzonitrile]	–	883	68	59700	–
N#Cc1ccc(Nc2nc(Cc3c(Cl)cccc3Cl)nc(NCCOCCO)n2)cc1 [Compound 27]	–	837	56	46800	–
CN(C)CCNc1nc(Cc2c(Cl)cccc2Cl)nc(Nc2ccc(C#N)cc2)n1 [Compound 29]	–	1741	5	8700	–
N#Cc1ccc(Nc2nc(Cc3c(Cl)cccc3Cl)nc(NCCCN)n2)cc1 [Compound 30]	–	416	40	16500	–
CN(C)CCCNc1nc(Cc2c(Cl)cccc2Cl)nc(Nc2ccc(C#N)cc2)n1 [Compound 31]	–	506	19	9600	–
N#Cc1ccc(Nc2nc(Cc3c(Cl)cccc3Cl)nc(NC3CCOC3=O)n2)cc1 (centres unmarked) [Compound 32]	–	42	2000	83400	–
N#Cc1ccc(Nc2nc(Cc3c(Cl)cccc3Cl)nc(NO)n2)cc1 [Compound 33, 4-[[4-[(2,6-dichlorophenyl)methyl]-6-(hydroxyamino)-1,3,5-triazin-2-yl]amino]benzonitrile]	2	6272	–	–	–
N#Cc1ccc(Nc2nc(Cc3c(Cl)cccc3Cl)nc(NCCc3cccs3)n2)cc1 [Compound 35]	–	75	700	53000	–
CONc1nc(Cc2c(Cl)cccc2Cl)nc(Nc2ccc(C#N)cc2)n1 [Compound 36]	–	8097	5	40900	–
CCOC(=O)Nc1nc(Cc2c(Cl)cccc2Cl)nc(Nc2ccc(C#N)cc2)n1 [Compound 37]	–	7948	11	85000	–
CN(C)c1nc(Cc2c(Cl)cccc2Cl)nc(N(c2ccc(C#N)cc2)c2ccc(C#N)cc2)n1 [Compound 38, 4,4′-[[4-[(2,6-dichlorophenyl)methyl]-6-(dimethylamino)-1,3,5-triazin-2-yl]imino]bisbenzonitrile]	> 100000	–	–	–	–
CC(=O)Nc1nc(Cc2c(Cl)cccc2Cl)nc(N(C(C)=O)c2ccc(C#N)cc2)n1 [Compound 40]	–	>41666	2	> 100000	–
CCOC(=O)N(C(=O)OCC)c1nc(Cc2c(Cl)cccc2Cl)nc(N(C(=O)OCC)c2ccc(C#N)cc2)n1 [Compound 41]	–	3125	13	40200	–
N#Cc1ccc(Nc2nc(N)nc(Cc3c(Cl)ccc(Cl)c3Cl)n2)cc1 [Compound 44]	–	>35087	3	> 100000	–
N#Cc1ccc(Nc2nc(N)nc(Cc3cccc(OC(F)(F)F)c3)n2)cc1 [Compound 45]	–	>233	430	> 100000	–
COc1ccc(OC)c(Cc2nc(N)nc(Nc3ccc(C#N)cc3)n2)c1 [Compound 46]	–	>2506	40	> 100000	–
Cc1ccc(C)c(Cc2nc(N)nc(Nc3ccc(C#N)cc3)n2)c1 [Compound 49]	–	>220	91	> 20000	–
COc1cccc(Cc2nc(N)nc(Nc3ccc(C#N)cc3)n2)c1OC [Compound 50]	–	>252	79	> 20000	–
N#Cc1ccc(Nc2nc(N)nc(Cc3cc(F)ccc3F)n2)cc1 [Compound 51]	–	>640	31	> 20000	–
N#Cc1ccc(Nc2nc(N)nc(Cc3c(F)ccc(F)c3F)n2)cc1 [Compound 52]	–	>220	3	–	–
CN(C)C=Nc1nc(Cc2c(Cl)cccc2Cl)nc(Nc2ccc(C#N)cc2)n1 [Compound 62, 4-[[4-[(2,6-dichlorophenyl)methyl]-6-[[(dimethylamino)methylene]amino]-1,3,5-triazin-2-yl]amino]benzonitrile]	2	>41666	–	–	–

Source: US20060049177A1, “Induction heating cooker” (LG Electronics Inc., priority 2004, published 2006)
